Results as given in US12661308B2, “Antimicrobial AZO compounds and uses thereof” (The Regents Of The University Of Colorado, A Body Corporate, priority 2019, dated 2026).
Entries after “also recorded” stand apart in the source; their conditions may differ.

Key:
[1] = test system: S. pyogenes (Group A strep, GAS); assay: Growth study, S. pyogenes (Group A strep); format: cell-based, Streptococcus pyogenes; settings: 50 mg/ML coated substrates, BHI media, 24 h time-period
Protocol: (§1) A single bacterial colony was inoculated in 4 mL BHI media. The colony was grown to mid-log phase (to approximately OD600=0.4), statically at 37° C., which for was approximately 4 hours for the S. agalactiae GBS, approximately 11 hours for the S. pyogenes GAS, and approximately 6 hours for the S. pneumaoniae. They were diluted 1:5 in 80% glycerol (in water) solution (4 parts culture, 1 part glycerol, for a final glycerol concentration of 16%). In a 96-well plate, each was diluted to 1:100 resulting in a final concentration of 1×10^6 CFU/mL and grown at 37° C. with 5% CO2.

E. coli biofilm = assay: Biofilm growth study, E. coli; format: cell-based, Escherichia coli; settings: 50 mg/mL coated substrate, 24 h time-period
Protocol: E. coli biofilms were grown from a 20 h BHI inoculated with an E. coli colony. The liquid culture was diluted 10^3 to a stock solution in BHI, then diluted 1:10 in BHI media in a 96-well plate. The plate was incubated in the dark at 37° C. for 24 h.
(§2) Following biofilm growth in the 96-well plate, the substrates were aseptically removed from the 96-well plate and placed in a vial containing 5 mL of 1× PBS solution. The vials were sonicated in a water bath for 10 min at 45° C., and the wells that previously contained the substrates were briefly sonicated using a probe sonicator (3 W RMS output) for 10 s per well. 200 μL aliquots of the sonicated PBS solution were placed in a 96-well plate and diluted 1:10 in each subsequent row. 20 μL aliquots of the sonicated media wells were placed in a 96-well plate containing 180 μL of PBS solution and diluted 1:10 in each subsequent row. Each column was then plated at a volume of 10 μL on a BHI agar plate in triplicate. The plates were then incubated at 37° C. and 5% CO2 for 48 h. The CFUs on each plate were counted in order to quantify the amount of biofilm remaining on the surface of the substrate and the bacteria remaining in the media after the removal of the substrate using the following equations: […]

S. mutans biofilm = S. mutans biofilm growth on coated pit and fissure dental sealants; format: cell-based, Streptococcus mutans; settings: coating on pit and fissure sealants
From the text: In some implementations, the azobenzene polymers can be used as an antimicrobial coating on pit and fissure dental sealants. […] Azobenzene coatings can be incorporated into pit and fissure sealants as an anti-bacterial coating to prevent tooth decay.

[2] = test system: S. mutans (ATCC 25175) biofilm; assay: S. mutans biofilm growth study by CFU count on coated and bulk substrates (Example 4); format: cell-based, Streptococcus mutans
Protocol: Coating formulations of OH-AAZO were prepared in THF, all others were prepared in DMF. The THF volume was kept constant (1 mL) and the mass of OH-AAZO monomer was varied to attain the desired concentration. In addition to the OH-AAZO monomer, the coating also consisted of AIBN (2 wt. % relative to the mass of the monomer), and Rhodamine B (0.2 wt. % relative to the mass of the monomer).
Once cured, the MMA:TEGDMA:PMMA base polymers were placed into a mount on a square glass microscope slide. 3 μL of the coating formulation was added via pipette to one side of the substrate and spin coated (1000 rpm for 1 min, 6000 rpm for 3 min), then the process was repeated on the other side. Once both sides were coated, they were placed in an oven for 3 h at 100° C., then under vacuum for an additional 0.5 h.
Bulk OH-AAZO formulations were prepared using the acrylic base polymer method with the addition of the appropriate weight percentage of OH-AAZO (relative to the total mass of the formulation) and AIBN (rather than camphorquinone/amine, 2 wt. %). The components were stirred at room temperature until completely dissolved. The formulations were pipetted into the rubber spacer and cured for 1 h at 100° C. Conversion rates were observed via FT-IR.
Following curing, residual monomer was aqueously extracted by autoclaving (20 psi, 128° C.) for 1 h in MilliQ water (approx. 5 mL water per substrate). The MilliQ water was replaced with fresh water (approx. 5 mL water per substrate) and placed in an 80° C. oven for 2 h. The substrates were blotted dry and analyzed via UV-Vis spectroscopy to confirm the relative amount of the coating (FIG. 9). All coated and bulk substrates were autoclaved prior to their use with both mammalian and bacterial cells.
S. mutans biofilms were grown from a 24 h BHI liquid culture inoculated with an isolated S. mutans colony. The liquid culture was diluted 1:50 in BHI media containing 1 wt. % sucrose in each well in a 96-well plate containing a substrate of interest. The plate was incubated in the dark at 37° C. and 5% CO2 for the necessary amount of time (t=24 h, 48 h, 72 h, depending on the experiment).
as §2

[3] = test system: S. agalactiae (Group B strep, GBS); assay: Growth study, S. agalactiae (Group B strep); format: cell-based, Streptococcus agalactiae; settings: 50 mg/ML coated substrates, BHI media, 24 h time-period
Protocol: as §1

[4] = test system: Methicillin-susceptible S. aureus biofilm; assay: Biofilm growth study, S. aureus; format: cell-based, Staphylococcus aureus; settings: 50 mg/mL coated substrate, 24 h time-period
Protocol: Methicillin-susceptible S. aureus biofilms were grown from a 20 h BHI liquid culture inoculated with an S. aureus colony. The liquid culture was diluted 10^3 to a stock solution in BHI, then diluted 1:10 in BHI media containing 0.4 wt. % glucose in a 96-well plate. The plate was incubated in the dark at 37 ° C. for 24 h.
as §2

SMILES: C=CC(=O)Oc1ccccc1/N=N/c1ccccc1O [OH-AAZO, phenolic acrylated azobenzene]
- S. pyogenes growth on coated substrate and in media [1]: did not grow on the coated substrate nor in the media
- antibacterial effect on E. coli biofilm (CFUs) (E. coli biofilm): no discernable antibacterial effect or reduction in CFUs
- S. mutans biofilm growth (S. mutans biofilm): absent
- CFUs of S. mutans biofilm on substrate ([2]; 5 mg/mL coating solution, 24 h): approximately 1.0×10^8 CFUs
- difference in CFUs between coated and uncoated substrates ([2]; 5 mg/mL coating solution, 24 h): no significant difference
- reduction in CFUs of S. mutans biofilm relative to the uncoated control ([2]; 25 mg/mL coating solution, 24 h): 4 log
- sterility of the substrate (sonication CFU) ([2]; 50 mg/mL coated substrates, over 72 h): maintained sterility
- bacterial growth in the media surrounding the substrate ([2]; 50 mg/mL coated substrates, t=48 h and 72 h): Some media bacterial growth was observed
- bacterial growth in the surrounding media ([2]; 50 mg/ml coated substrate, 24 h): absent
- CFUs of S. mutans biofilm on substrate surface ([2]; 100 mg/mL coating solution, 24 h): no observable CFUs
- bacterial growth in the surrounding media ([2]; 100 mg/ml coated substrate, 24 h): absent
- CFUs of S. mutans on surface and in surrounding media ([2]; 1.5 wt. % OH-AAZO bulk bisGMA:TEGDMA substrate, 24 h): no observable CFUs; also recorded: maintained sterility
- CFUs of S. mutans on surface and in surrounding media ([2]; 2 wt. % OH-AAZO bulk bisGMA:TEGDMA substrate, 24 h): no observable CFUs; also recorded: maintained sterility
- prevention of growth of an S. mutans biofilm ([2]; sucrose-dependent conditions): shown to prevent the growth
- S. agalactiae growth on coated substrate and in media [3]: did not grow on the coated substrate nor in the media
- antibacterial effect on S. aureus biofilm (CFUs) [4]: no discernable antibacterial effect or reduction in CFUs
